What was measured:
[1] = molecular target: T1, human Focal Adhesion Kinase (FAK) (Homo sapiens, UniProt Q05397); assay: FAK3 Kinase Inhibition Assay (in vitro enzyme assay); assay type: biochemical; conditions: read-out: FAK inhibitory activity IC50
T1 construct: FAK (full length human cDNA described by Andre et al); made in house; host or cells: Sf21 insect cells, baculovirus (pFastbac 1); cleared cell lysate used as enzyme stock
Text: FAK3 Kinase Inhibition Assay
This assay determines the ability of a test compound to inhibit tyrosine kinase activity of human Focal Adhesion Kinase (FAK).
Active FAK protein has been previously expressed in a baculovirus system using a similar N-terminal 6-histidine tag (Protein Expression And Purification, 1996, 7: 12–18). The human FAK cDNA was cloned into the baculovirus transplacement vector, pFastbac 1 (Life Technologies), and the recombinant construct was co-transfected into insect cells (for example Spodoptera frugiperda 21(Sf21)) with viral DNA to prepare recombinant baculovirus (details of the methods for the assembly of recombinant DNA molecules and the preparation and use of recominant baculovirus can be found in standard texts for example Sambrook et al, 1989, Molecular cloning-A Laboratory Manual, 2nd edition, Cold Spring Harbour Laboratory Press and O'Reilly et al, 1992, Baculovirus Expression Vectors-A Laboratory Manual, W. H. Freeman and Co, New York. Details specific to the use of the pFastbac (‘Bac to Bac’) system are provided in Anderson et al., 1995, FOCUS (Life Technologies Bulletin Magazine), 17, p53.)
For expression of biologically active human FAK protein, Sf21 cells were infected with plaque-pure FAK recombinant virus at a multiplicity of infection of 3 and harvested 48 hours later. […]

CDK4/Cyclin D1 = molecular target: T2, CDK4/Cyclin D1 (Homo sapiens, UniProt P11802); assay: CDK4 Inhibition Assay (Scintillation Proximity Assay, GST-Retinoblastoma substrate); assay type: biochemical; conditions: in vitro kinase assay, 0.2 μM ATP; read-out: CDK4 inhibitory activity IC50
T2 construct: made in house; host or cells: Sf21 insect cells, baculovirus co-infection (pVL1393)
T2 sequence (P11802 whole entry): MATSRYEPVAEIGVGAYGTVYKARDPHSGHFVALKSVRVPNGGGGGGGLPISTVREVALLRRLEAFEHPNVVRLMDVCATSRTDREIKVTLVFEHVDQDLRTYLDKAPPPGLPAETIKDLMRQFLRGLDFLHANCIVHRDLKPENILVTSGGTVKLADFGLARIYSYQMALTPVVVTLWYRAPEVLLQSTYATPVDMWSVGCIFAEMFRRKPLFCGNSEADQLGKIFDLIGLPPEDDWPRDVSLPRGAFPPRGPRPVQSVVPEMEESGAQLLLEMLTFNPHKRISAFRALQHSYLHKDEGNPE
T2 sequence (P24385 whole entry partner): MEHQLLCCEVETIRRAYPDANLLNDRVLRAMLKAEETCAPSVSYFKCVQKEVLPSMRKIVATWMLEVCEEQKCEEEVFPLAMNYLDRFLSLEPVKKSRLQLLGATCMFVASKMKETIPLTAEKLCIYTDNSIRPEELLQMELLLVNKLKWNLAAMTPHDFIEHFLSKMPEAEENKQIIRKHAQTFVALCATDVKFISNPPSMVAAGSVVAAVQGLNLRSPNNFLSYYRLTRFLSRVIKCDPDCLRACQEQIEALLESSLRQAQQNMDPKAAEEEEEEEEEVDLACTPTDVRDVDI
Procedure: The compounds were tested in an in vitro kinase assay in 96 well format using Scintillation Proximity Assay (SPA-obtained from Amersham) for measuring incorporation of [γ-33-P]-Adenosine Triphosphate into a test substrate (GST-Retinoblastoma). In each well was placed the compound to be tested (diluted in DMSO and water to correct concentrations) and in control wells either p16 as an inhibitor control or DMSO as a positive control.
Approximately 0.5 μl of CDK4/Cyclin D1 partially-purified enzyme (amount dependent on enzyme activity) diluted in 25 μl incubation buffer was added to each well then 20 μl of GST-Rb/ATP/ATP33 mixture (containing 0.5 μg GST-Rb and 0.2 μM ATP and 0.14 μCi [γ-33-P]-Adenosine Triphosphate), and the resulting mixture shaken gently, then incubated at room temperature for 60 minutes.
To each well was then added 150 μL stop solution containing (0.8 mg/well of Protein A-PVT SPA bead (Amersham)), 20 pM/well of Anti-Glutathione Transferase, Rabbit IgG (obtained from Molecular Probes), 61 mM EDTA and 50 mM HEPES pH 7.5 containing 0.05% sodium azide.
The plates were sealed with Topseal-S plate sealers, left for two hours then spun at 2500 rpm, 1124 xg., for 5 minutes. The plates were read on a Topcount for 30 seconds per well. […]

T1 sequence (Q05397 whole entry): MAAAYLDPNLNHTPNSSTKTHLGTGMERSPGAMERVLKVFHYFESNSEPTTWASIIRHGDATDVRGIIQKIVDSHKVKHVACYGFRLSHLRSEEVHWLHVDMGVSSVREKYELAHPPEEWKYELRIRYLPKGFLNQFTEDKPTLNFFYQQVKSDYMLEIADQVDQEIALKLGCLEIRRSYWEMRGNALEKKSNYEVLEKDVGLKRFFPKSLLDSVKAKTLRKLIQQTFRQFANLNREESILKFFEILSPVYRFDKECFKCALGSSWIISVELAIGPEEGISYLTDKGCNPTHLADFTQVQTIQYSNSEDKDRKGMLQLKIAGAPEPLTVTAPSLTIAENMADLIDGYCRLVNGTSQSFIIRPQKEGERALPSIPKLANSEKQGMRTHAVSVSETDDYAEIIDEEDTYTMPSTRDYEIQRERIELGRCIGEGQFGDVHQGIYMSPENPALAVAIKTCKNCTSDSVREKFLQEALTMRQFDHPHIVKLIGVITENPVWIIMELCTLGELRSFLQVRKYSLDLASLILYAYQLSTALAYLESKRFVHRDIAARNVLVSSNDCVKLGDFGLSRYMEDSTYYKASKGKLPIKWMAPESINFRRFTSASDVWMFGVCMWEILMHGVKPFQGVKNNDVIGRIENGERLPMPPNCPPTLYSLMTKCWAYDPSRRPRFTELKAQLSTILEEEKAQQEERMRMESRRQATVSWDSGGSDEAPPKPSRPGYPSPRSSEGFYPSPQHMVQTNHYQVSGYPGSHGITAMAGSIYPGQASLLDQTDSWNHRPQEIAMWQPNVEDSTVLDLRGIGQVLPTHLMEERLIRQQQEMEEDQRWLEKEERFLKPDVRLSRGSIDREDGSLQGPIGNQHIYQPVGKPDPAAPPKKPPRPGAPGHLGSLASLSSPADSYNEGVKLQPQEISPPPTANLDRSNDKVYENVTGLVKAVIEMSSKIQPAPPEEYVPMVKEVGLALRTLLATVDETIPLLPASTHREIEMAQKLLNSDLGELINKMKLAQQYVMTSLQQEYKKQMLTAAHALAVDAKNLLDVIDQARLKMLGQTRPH

Row | IC50 [1] | IC50 (CDK4/Cyclin D1) | SMILES
1 | 218 nM |  | CCN(CC)CCOc1ccc(Nc2ncc(Br)c(Nc3ccccc3)n2)cc1 [Example 25]
2 |  | 679 nM | OCCOCc1ccc(Nc2ncc(Br)c(Nc3ccccc3)n2)cc1 [Example 31, 4-Anilino-5-bromo-2-[4-(2-hydroxyethoxy)methylanilino]pyrimidine]

— patent US7067522B2, “2,4,DI (hetero-) arylamino (-oxy)-5-substituted pyrimidines as antineoplastic agents” (AstraZeneca AB, priority 2000, dated 2006)
